Reference: US12503439B2, “Heteroaryl compounds for the treatment of pain” (VERTEX PHARMACEUTICALS INCORPORATED, priority 2022, dated 2025)

Target: truncated form of human NaV 1.8 with full channel activity (expressed in HEK cells) (Homo sapiens, UniProt Q9Y5Y9)
Test: E-VIPR assay detecting and measuring NaV inhibition properties (electrical stimulation, membrane potential FRET dyes)
Assay type: cell-based
Details: HEK cells expressing truncated human NaV 1.8, KIR2.1 BacMam; 11-point dose response; 30 min compound incubation; stimulation 10 Hz for 10 s; read-out: measured IC50 value in the E-VIPR Assay
Text: E-VIPR Assay Detecting and Measuring NaV Inhibition Properties
Sodium ion channels are voltage-dependent proteins that can be activated by inducing membrane voltage changes by applying electric fields. […] The instrument comprises a microtiter plate handler, an optical system for exciting the coumarin dye while simultaneously recording the coumarin and oxonol emissions, a waveform generator, a current- or voltage-controlled amplifier, and parallel electrode pairs that are inserted into assay plate wells. Under integrated computer control, this instrument passes user-programmed electrical stimulus protocols to cells within the wells of the microtiter plate.
16-20 hours prior to running the assay on E-VIPR, HEK cells expressing a truncated form of human NaV 1.8 with full channel activity were seeded into microtiter 384-well plates, pre-coated with matrigel, at a density of 25,000 cells per well. 2.5-5% KIR2.1 BacMam virus was added to the final cell suspension before seeding into cell plates. […] Cells were expanded in 5-layer CellSTACK culture chambers or cell culture flasks with vented caps, with 90-95% humidity and 5% CO2.
Reagents and Stock Solutions:
The concentration used can be dependent on viral titer of each batch.
Human Serum (HS, Millipore #S1P1-01KL, or Sigma SLBR5469V and SLBR5470V as a 50%/50% mixture, for 25% assay final concentration)
Hexyl Dye Solution (2× Concentration):
Bath 1 Buffer containing 0.5% β-cyclodextrin (made fresh prior to each use, Sigma #C4767), 8 μM CC2-DMPE and 2 μM DiSBAC6(3). The solution was made by adding 10% Pluronic F127 stock equal to combined volumes of CC2-DMPE and DiSBAC6(3). The order of preparation was first mix Pluronic and CC2-DMPE, then add DiSBAC6(3), then while vortexing add Bath 1/β-Cyclodextrin.
Assay Protocol (7 Key Steps):
The compound plate was backfilled with 45 μL per well of Compound Loading Buffer resulting in a 240-fold dilution of compound following a 1:1 transfer of compound into the cell plate (see Step 6). […] This assay dilution protocol was adjusted to enable a higher dose range to be tested in the presence of HS or if the final assay volume was altered. • 2) Hexyl Dye Solution was prepared. • 3) Cell plates were prepared. On the day of the assay, the media was aspirated, and the cells were washed three times with 80 μL of Bath-1 buffer, maintaining 25 μL residual volume in each well. • 4) 25 μL per well of Hexyl Dye Solution was dispensed into the cell plates. The cells were incubated for 20 minutes at room temperature or ambient conditions in darkness. • 5) 45 μL per well of Compound Loading Buffer was dispensed into compound plates. • 6) The cell plates were washed three times with 80 μL per well of Bath-1 Buffer, leaving […] of residual volume. Then 25 μL per well from compound plate was transferred to each cell plate. The mixture was incubated for 30 minutes at room temperature/ambient conditions. • 7) The cell plate containing compound was read on E-VIPR using the current-controlled amplifier to deliver stimulation wave pulses using a symmetrical biphasic waveform. […] A pre-stimulus recording was performed for each well for 0.5 seconds to obtain the un-stimulated intensities baseline. The stimulatory waveform was followed by 0.5 seconds of post-stimulation recording to examine the relaxation to the resting state. All E-VIPR responses were measured at 200 Hz acquisition rate. Data Analysis:
The response as a function of time was reported as the ratios obtained using the following formula: […]
The data were normalized by calculating the initial (Ri) and final (Rf) ratios. These were the average ratio values during part or all of the pre-stimulation period and during sample points during the stimulation period. The fluorescence ratio (Rf/Ri) was then calculated and reported as a function of time.
Control responses were obtained by performing assays in the presence of the positive control, and in the absence of pharmacological agents (DMSO vehicle negative control).

Chain of truncated form of human NaV 1.8 with full channel activity (expressed in HEK cells) (Q9Y5Y9 126-1722 limits assumed): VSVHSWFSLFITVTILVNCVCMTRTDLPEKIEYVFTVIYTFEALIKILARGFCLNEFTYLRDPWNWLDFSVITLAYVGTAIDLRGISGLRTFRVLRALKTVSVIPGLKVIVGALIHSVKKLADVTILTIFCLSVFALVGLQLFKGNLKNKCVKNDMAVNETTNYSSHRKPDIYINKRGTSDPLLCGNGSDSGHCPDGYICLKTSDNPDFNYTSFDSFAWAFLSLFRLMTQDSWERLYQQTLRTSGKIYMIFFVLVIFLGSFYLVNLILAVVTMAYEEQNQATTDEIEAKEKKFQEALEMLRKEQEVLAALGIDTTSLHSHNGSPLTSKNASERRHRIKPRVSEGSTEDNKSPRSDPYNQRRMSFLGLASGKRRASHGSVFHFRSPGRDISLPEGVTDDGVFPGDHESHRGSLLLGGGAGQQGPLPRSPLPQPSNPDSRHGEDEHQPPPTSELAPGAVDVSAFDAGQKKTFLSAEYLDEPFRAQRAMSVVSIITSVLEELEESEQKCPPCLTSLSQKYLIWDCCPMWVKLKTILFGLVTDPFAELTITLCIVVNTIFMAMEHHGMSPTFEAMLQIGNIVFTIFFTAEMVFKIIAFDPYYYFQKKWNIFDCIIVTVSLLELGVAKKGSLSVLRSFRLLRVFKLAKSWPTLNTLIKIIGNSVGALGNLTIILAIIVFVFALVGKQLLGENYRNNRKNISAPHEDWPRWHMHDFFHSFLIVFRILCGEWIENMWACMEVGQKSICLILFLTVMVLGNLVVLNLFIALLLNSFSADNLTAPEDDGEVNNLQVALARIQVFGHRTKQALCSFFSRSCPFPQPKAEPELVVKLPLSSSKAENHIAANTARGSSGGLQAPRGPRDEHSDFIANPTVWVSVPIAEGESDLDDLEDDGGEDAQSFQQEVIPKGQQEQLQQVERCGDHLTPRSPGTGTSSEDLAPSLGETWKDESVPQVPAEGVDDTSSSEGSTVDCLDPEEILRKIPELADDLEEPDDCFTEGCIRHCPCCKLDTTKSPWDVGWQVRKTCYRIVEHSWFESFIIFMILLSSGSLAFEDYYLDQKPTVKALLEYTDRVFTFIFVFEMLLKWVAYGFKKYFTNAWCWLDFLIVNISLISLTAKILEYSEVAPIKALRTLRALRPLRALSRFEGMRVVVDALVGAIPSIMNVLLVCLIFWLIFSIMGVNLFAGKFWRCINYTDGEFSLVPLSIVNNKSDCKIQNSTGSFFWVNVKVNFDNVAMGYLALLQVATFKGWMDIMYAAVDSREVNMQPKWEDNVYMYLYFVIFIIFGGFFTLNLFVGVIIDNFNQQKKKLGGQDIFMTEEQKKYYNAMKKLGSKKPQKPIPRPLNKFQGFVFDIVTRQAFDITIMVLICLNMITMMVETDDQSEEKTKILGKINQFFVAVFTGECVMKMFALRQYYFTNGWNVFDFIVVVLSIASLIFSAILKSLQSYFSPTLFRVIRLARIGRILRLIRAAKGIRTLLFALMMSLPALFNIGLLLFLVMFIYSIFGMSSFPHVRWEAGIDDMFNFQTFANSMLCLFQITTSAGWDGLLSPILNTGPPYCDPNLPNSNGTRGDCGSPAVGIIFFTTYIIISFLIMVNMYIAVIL

IC50 [nM] | SMILES
500 to 2000 | COc1cc(F)ccc1Oc1cc(C(C)(C)C)cc(C)c1-c1[nH]c2ccccc2c(=O)c1Br (single isomer, unassigned) [Compound 320, 3-bromo-2-[4-tert-butyl-2-(4-fluoro-2-methoxy-phenoxy)-6-methyl-phenyl]-1H-quinolin-4-one]
500 to 2000 | O=c1cc(-c2ccccc2OCc2ccccc2)[nH]c2ccccc12 [Compound 3, 2-(2-benzyloxyphenyl)-1H-quinolin-4-one]
≥ 5000 | Cc1cc(-c2cc(=O)c3c(C)nccc3[nH]2)c(N2CCCC(F)(F)CC2)nc1C(F)(F)F [Compound 193, 2-[2-(4,4-difluoroazepan-1-yl)-5-methyl-6-(trifluoromethyl)-3-pyridyl]-5-methyl-1H-1,6-naphthyridin-4-one]
2000 to 5000 | COc1cc(F)ccc1Oc1cc(C(C)(C)C)cc(C)c1-c1[nH]c2ccccc2c(=O)c1C (single isomer, unassigned) [Compound 334, 2-[4-tert-butyl-2-(4-fluoro-2-methoxy-phenoxy)-6-methyl-phenyl]-3-methyl-1H-quinolin-4-one]
500 to 2000 | NC(=O)c1nccc2[nH]c(-c3cc4ccccc4nc3N3CCC(F)(F)C3)cc(=O)c12 [Compound 281, 2-[2-(3,3-difluoropyrrolidin-1-yl)-3-quinolyl]-4-oxo-1H-1,6-naphthyridine-5-carboxamide]
500 to 2000 | O=c1cc(-c2ccccc2OCc2cccc(F)c2)[nH]c2ccccc12 [Compound 4, 2-[2-[(3-fluorophenyl)methoxy]phenyl]-1H-quinolin-4-one]
≥ 5000 | O=c1cc(-c2ccccc2OCC2CC2)[nH]c2ccccc12 [Compound 2, 2-[2-(cyclopropylmethoxy)phenyl]-1H-quinolin-4-one]
500 to 2000 | COc1cc(F)ccc1Oc1cc(C(C)(C)C)cc(C)c1-c1[nH]c2ccccc2c(=O)c1Cl (single isomer, unassigned) [Compound 312, 2-[4-tert-butyl-2-(4-fluoro-2-methoxy-phenoxy)-6-methyl-phenyl]-3-chloro-1H-quinolin-4-one]
≥ 5000 | O=c1cc(-c2ccccc2C2CC2)[nH]c2ccccc12 [Compound 1, 2-(2-cyclopropylphenyl)-1H-quinolin-4-one]
500 to 2000 | N#Cc1nccc2[nH]c(-c3cc4ccccc4nc3N3CCC(F)(F)C3)cc(=O)c12 [Compound 282, 2-[2-(3,3-difluoropyrrolidin-1-yl)-3-quinolyl]-4-oxo-1H-1,6-naphthyridine-5-carbonitrile]
500 to 2000 | COc1cc(F)ccc1Oc1cc(C(C)(C)C)cc(C)c1-c1cc(=O)c2cccc(C)c2[nH]1 [Compound 32, 2-[4-tert-butyl-2-(4-fluoro-2-methoxy-phenoxy)-6-methyl-phenyl]-8-methyl-1H-quinolin-4-one]
2000 to 5000 | O=c1cc(-c2ccccc2OCc2ccc(F)cc2)[nH]c2ccccc12 [Compound 6, 2-[2-[(4-fluorophenyl)methoxy]phenyl]-1H-quinolin-4-one]
≥ 5000 | CCN(c1nc2ccccc2cc1-c1cc(=O)c2c(C(N)=O)nccc2[nH]1)C1CCC1 [Compound 303, 2-[2-[cyclobutyl(ethyl)amino]-3-quinolyl]-4-oxo-1H-1,6-naphthyridine-5-carboxamide]
≥ 5000 | O=c1[nH]c(-c2nc(C(F)(F)F)ccc2N2CCCC(F)(F)CC2)nc2ccccc12 [Compound 153, 2-[3-(4,4-difluoroazepan-1-yl)-6-(trifluoromethyl)-2-pyridyl]-3H-quinazolin-4-one]
500 to 2000 | COC1CCC(c2cc(C(C)(C)C)ncc2-c2cc(=O)c3c(C(N)=O)nccc3[nH]2)CC1 (stereo not drawn) [Compound 133, 2-[6-tert-butyl-4-(4-methoxycyclohexyl)-3-pyridyl]-4-oxo-1H-1,6-naphthyridine-5-carboxamide]
500 to 2000 | Cc1c(C(F)(F)F)cnc(Oc2ccc(F)c(F)c2CO)c1-c1cc(=O)c2c(C(N)=O)nccc2[nH]1 [Compound 346, 2-[2-[3,4-difluoro-2-(hydroxymethyl)phenoxy]-4-methyl-5-(trifluoromethyl)-3-pyridyl]-4-oxo-1H-1,6-naphthyridine-5-carboxamide]
500 to 2000 | Cc1c(Oc2ncc(C(F)(F)F)c(C)c2-c2cc(=O)c3c(NC(C)(C)CO)nccc3[nH]2)ccc(F)c1F [Compound 170, 2-[2-(3,4-difluoro-2-methyl-phenoxy)-4-methyl-5-(trifluoromethyl)-3-pyridyl]-5-[(2-hydroxy-1,1-dimethyl-ethyl)amino]-1H-1,6-naphthyridin-4-one]
500 to 2000 | NC(=O)c1nccc2[nH]c(-c3cc(F)c(C(F)(F)F)cc3Oc3ccc(F)c(F)c3O)cc(=O)c12 [Compound 347, 2-[2-(3,4-difluoro-2-hydroxy-phenoxy)-5-fluoro-4-(trifluoromethyl)phenyl]-4-oxo-1H-1,6-naphthyridine-5-carboxamide]
≥ 5000 | O=c1cc(-c2cc(C(F)(F)F)ncc2[C@H]2CC[C@H](C(F)(F)F)CC2)[nH]c2ccncc12 [Compound 305, 2-[2-(trifluoromethyl)-5-[4-(trifluoromethyl)cyclohexyl]-4-pyridyl]-1H-1,6-naphthyridin-4-one]
500 to 2000 | COc1cc(F)ccc1Oc1cc(C(C)(C)C)cc(C)c1-c1nc(=O)c2ccccc2[nH]1 [Compound 28, 2-[4-tert-butyl-2-(4-fluoro-2-methoxy-phenoxy)-6-methyl-phenyl]-1H-quinazolin-4-one]
500 to 2000 | O=c1cc(-c2cc(Cl)c(C(F)(F)F)nc2N2CCCC(F)(F)CC2)[nH]c2c(F)cccc12 [Compound 95, 2-[5-chloro-2-(4,4-difluoroazepan-1-yl)-6-(trifluoromethyl)-3-pyridyl]-8-fluoro-1H-quinolin-4-one]
500 to 2000 | C=C(C)c1c(-c2c(C)cc(C(C)(C)C)cc2Oc2ccc(F)cc2OC)[nH]c2ccccc2c1=O (single isomer, unassigned) [Compound 331, 2-[4-tert-butyl-2-(4-fluoro-2-methoxy-phenoxy)-6-methyl-phenyl]-3-isopropenyl-1H-quinolin-4-one]
≥ 5000 | COc1cc(F)ccc1Oc1cc(C(C)(C)C)cc(C)c1-c1cc(=O)n2ccccc2n1 [Compound 37, 2-[4-tert-butyl-2-(4-fluoro-2-methoxy-phenoxy)-6-methyl-phenyl]pyrido[1,2-a]pyrimidin-4-one]
500 to 2000 | CC(C)(C)n1cc(-c2cc(=O)c3c(C(N)=O)nccc3[nH]2)c(C2CCC(F)(F)CC2)n1 [Compound 138, 2-[1-tert-butyl-3-(4,4-difluorocyclohexyl)pyrazol-4-yl]-4-oxo-1H-1,6-naphthyridine-5-carboxamide]
500 to 2000 | COc1cc(F)ccc1Oc1cc(C(C)(C)C)cc(C)c1-c1nc2cccc(F)c2c(=O)[nH]1 [Compound 38, 2-[4-tert-butyl-2-(4-fluoro-2-methoxy-phenoxy)-6-methyl-phenyl]-5-fluoro-3H-quinazolin-4-one]
500 to 2000 | Cc1c(Oc2ncc(C(F)(F)F)c(C)c2-c2cc(=O)c3c(N4Cc5cn[nH]c5C4)nccc3[nH]2)ccc(F)c1F [Compound 175, 2-[2-(3,4-difluoro-2-methyl-phenoxy)-4-methyl-5-(trifluoromethyl)-3-pyridyl]-5-(4,6-dihydro-1H-pyrrolo[3,4-c]pyrazol-5-yl)-1H-1,6-naphthyridin-4-one]
500 to 2000 | Cc1c(Oc2ncc(C(F)(F)F)c(C)c2-c2cc(=O)c3c(N4CC(O)C4)nccc3[nH]2)ccc(F)c1F [Compound 179, 2-[2-(3,4-difluoro-2-methyl-phenoxy)-4-methyl-5-(trifluoromethyl)-3-pyridyl]-5-(3-hydroxyazetidin-1-yl)-1H-1,6-naphthyridin-4-one]
